Laboratory results as given in patent US20260048045A1, “PI3K-ALPHA INHIBITORS FOR THE TREATMENT OF CANCER” (Scorpion Therapeutics, Inc., priority 2022, published 2026).

What was measured:
[1] = target: T1, PI3Kα H1047R (full-length p110-α H1047R complexed with truncated p85-α, residues 322-694) + wortmannin (Homo sapiens, UniProt P42336, H1047R); assay: Surface Plasmon Resonance (SPR) binding, Biacore 8K, ATP site blocked with wortmannin; details: multi-cycle kinetics, 25° C., protein pre-incubated with 1 μM wortmannin
T1 construct: The protein contained a full-length p110-α subunit harboring the H1047R mutation with an N-terminal AviTag
T1 sequence (P42336 whole entry H1047R, the tested form may be a part): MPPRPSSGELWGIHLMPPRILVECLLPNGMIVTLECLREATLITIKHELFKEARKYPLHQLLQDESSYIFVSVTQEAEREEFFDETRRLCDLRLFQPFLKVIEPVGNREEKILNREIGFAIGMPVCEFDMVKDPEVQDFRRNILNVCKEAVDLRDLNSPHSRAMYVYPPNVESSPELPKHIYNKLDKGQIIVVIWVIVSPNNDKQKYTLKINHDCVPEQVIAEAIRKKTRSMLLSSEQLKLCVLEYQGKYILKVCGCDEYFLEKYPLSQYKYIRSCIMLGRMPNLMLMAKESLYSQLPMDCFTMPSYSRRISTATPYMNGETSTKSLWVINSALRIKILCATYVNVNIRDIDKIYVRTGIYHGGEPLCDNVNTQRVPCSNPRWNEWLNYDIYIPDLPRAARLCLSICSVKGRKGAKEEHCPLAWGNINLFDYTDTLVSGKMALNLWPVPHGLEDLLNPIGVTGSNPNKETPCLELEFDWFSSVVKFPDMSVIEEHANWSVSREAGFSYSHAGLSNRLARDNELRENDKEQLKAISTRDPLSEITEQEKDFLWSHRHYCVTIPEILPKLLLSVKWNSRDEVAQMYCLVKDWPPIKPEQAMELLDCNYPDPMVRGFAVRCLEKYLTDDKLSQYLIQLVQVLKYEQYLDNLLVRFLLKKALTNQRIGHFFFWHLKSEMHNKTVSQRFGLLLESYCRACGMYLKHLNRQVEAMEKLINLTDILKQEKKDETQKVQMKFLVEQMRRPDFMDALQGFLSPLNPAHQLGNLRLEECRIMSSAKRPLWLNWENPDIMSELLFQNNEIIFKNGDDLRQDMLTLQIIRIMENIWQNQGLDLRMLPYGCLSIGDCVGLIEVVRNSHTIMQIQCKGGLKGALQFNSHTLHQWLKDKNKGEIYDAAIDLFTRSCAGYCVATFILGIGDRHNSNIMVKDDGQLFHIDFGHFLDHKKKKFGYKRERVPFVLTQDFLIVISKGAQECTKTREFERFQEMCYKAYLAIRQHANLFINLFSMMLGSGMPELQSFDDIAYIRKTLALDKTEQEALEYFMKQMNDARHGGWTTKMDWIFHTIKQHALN
T1 sequence (P27986 322-694 partner limits assumed): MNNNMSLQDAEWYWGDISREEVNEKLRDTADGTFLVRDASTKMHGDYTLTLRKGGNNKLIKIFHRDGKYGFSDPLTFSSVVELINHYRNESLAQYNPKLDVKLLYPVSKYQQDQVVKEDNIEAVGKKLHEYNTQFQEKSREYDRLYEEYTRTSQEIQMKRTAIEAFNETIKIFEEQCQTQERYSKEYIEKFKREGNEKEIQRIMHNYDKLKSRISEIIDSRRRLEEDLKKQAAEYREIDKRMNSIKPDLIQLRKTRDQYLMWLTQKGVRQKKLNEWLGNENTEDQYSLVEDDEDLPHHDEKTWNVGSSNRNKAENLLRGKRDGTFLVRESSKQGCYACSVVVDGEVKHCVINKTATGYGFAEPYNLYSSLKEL
Method: SPR experiments were performed on a Biacore 8K instrument. A biotinylated recombinant PI3Kα H1047R protein was used in this study. The protein contained a full-length p110-α subunit harboring the H1047R mutation with an N-terminal AviTag, complexed with a truncated p85-α subunit (amino acid residues 322-694). The protein was first incubated with 1 μM wortmannin for 30 min at RT to covalently block the ATP binding site, then immobilized onto a streptavidin sensor chip by flowing the protein through the sensor chip at typically 20 μg/mL concentration and 2 μL/min flow rate for 1200 seconds. Compound binding affinities were measured in the multi-cycle kinetics mode, at 90 μL/min flow rate with 90 seconds association time and 240 seconds dissociation time. The running buffer contained 50 mM Tris, pH 7.5, 150 mMNaCl, 0.01% Brij35, 1 mM DTT, 1 mM MgCl2, 0.05% Tween-20 and 2% DMSO. Temperature was maintained at 25° C. during experiments. SPR can also be utilized to study competition between Compounds A and B, i.e., by measuring the binding of Compound A in the presence and absence of Compound B, and by measuring the binding of Compound B in the presence and absence of Compound A.

[2] = tested on: pAKT (S473) in T47D.1 cells, PI3Kα H1047R mutation present; assay: HTRF pAKT-T47D cell assay; format: cell-based; details: RPMI+10% FBS+0.2 units/mL bovine insulin
Method: Compounds A and B were assayed using homogeneous time-resolved fluorescence (HTRF).
Gibco RPMI 1640 Medium, no phenol red; Gibco RPMI 1640 Medium; Gibco Trypsin-EDTA (0.5%), no phenol red; Gibco DPBS; Trypan blue solution 0.4% (Corning); Avantor Seradigm Premium Grade Fetal Bovine Serum (FBS); Greiner 784080-384 well TC treated white plates; pAKT (Ser473) HTRF; Gibco Insulin, human recombinant, zinc solution; Gibco Recovery Cell Culture Freezing Medium; Countess II FL Automated Cell Counter (ThermoFisher); Countess II Slides (ThermoFisher); Microscope; and PHERAstar FSX Microplate Reader (BMG LABTECH, Inc.).
The cell line ID was T47D.1, the HTRF detection was pAKT (S473), a PI3Kα H1047R mutation was present, the seeding density was 5000, the timepoint was 1 hour, and the medium used was RPMI+10% FBS (no phenol red)+0.2 units/mL bovine insulin.
• The cell density was not permitted to reach 100% confluence. The cells were split 1.5 when they reached ˜80% confluence. • Cells were split twice a week (Mon and Fri). • Cells over passage 18 were not used (˜2 months of maintenance). • Antibiotics were not used for tissue culture maintenance or assays.
The procedure was as follows: • 1. Prepared ARP: • a. Stamped 12.5 nL from 10 mM source plate to destination plate using Echo. Sealed plate immediately and froze at −20° C. if it was not used on the same day. • b. If a frozen ARP was used, the plate was thawed and spun at 1000 rpm×1 min. • 2. Preparation of cells (adherent): • a. Aspirated media from cells. Washed cells with sterile 1×PBS. Aspirated PBS and added appropriate amount of Trypsin. • b. Once cells were fully trypsinized, added appropriate media to resuspend cells. Transferred cells to a 15 mL or 50 mL conical tube. • c. Counted cells on the Countess II Cell Counter. • 3. Plating of cells: • a. […] Calculated the amount of HTRF antibody master mix needed to perform the desired experiments plus any extra dead volume required for dispensing (4 mL required per well). […]
• 6. Measured on the PHERAstar/Envision using the HTRF protocol. When plates were read, all wells were read.

| SMILES | Kd [1] [nM] | IC50 ([2]; 1 hour) [nM] | IC50 ([2]; Homo sapiens, T47D, 1 h) [nM] |
| --- | --- | --- | --- |
| Cc1c([C@@H](NC(=O)Nc2cncc(C(=O)N(C)C)c2)C(C)C)oc2ccc(F)cc12 [Compound A, (S)-5-(3-(1-(5-fluoro-3-methylbenzofuran-2-yl)-2-methylpropyl)ureido)-N,N-dimethylnicotinamide] | 38.4 | 598 | 455 |
| Cc1c([C@@H](Nc2nc3ccc(C(N)=O)cc3[nH]2)C(C)C)oc2ccc(F)cc12 [Compound B, (S)-2-((1-(5-fluoro-3-methylbenzofuran-2-yl)-2-methylpropyl)amino)-1H-benzo[d]imidazole-6-carboxamide] | 8.6 |  | 213 |
